Counter-ions that a name gives are not always drawn.
These compounds were tested against T1, human recombinant DPP-IV (Homo sapiens, UniProt P27487) (assay: Inhibition of human recombinant DPP-IV (Gly-Pro-AMC hydrolysis, fluorometric)). Details: compound 10 nM; relative to vehicle controls.
T1 construct: purchased R&D Systems, USA (or produced in-house)
Type: biochemical
Experimental: Inhibition of Human Recombinant DPP-IV
The proteolytic activity of human recombinant DPP-IV was determined by following the hydrolysis of Gly-Pro-7-amino-4-methylcoumarin (Gly-Pro-AMC) and the fluorometric quantitation of the liberated AMC. Assays were routinely carried out in 96-well flat-bottom black microwell plates. The reaction mixture (100 μl) contained 10 ng of human recombinant DPP-IV enzyme (produced in-house or procured from R&D Systems, USA) in the assay buffer (25 mM Tris-HCl, pH 7.4, 140 mM NaCl, 10 mM KCl and 0.1 mg/ml BSA) and 50 μM Gly-Pro-AMC. After incubation of assay plates at 30° C. for 30 min, the hydrolysis of Gly-Pro-AMC was monitored in a fluorescence microplate reader (Molecular Devices SpectraMax M5), with excitation and emission wavelengths set at 360 nm and 460 nm, respectively.
The inhibition of DPP-IV activity by test compounds was routinely performed by preincubating the enzyme with test compound (10 and 100 nM for primary screening and 8 concentrations from 0.1 to 1000 nM for the dose-response study) or vehicle (0.01% DMSO) for 15 min at 30° C., in a total volume of 90 μl. Test compounds were dissolved in DMSO at a concentration of 10 mM and serially diluted further in assay buffer. The enzyme reaction was initiated by the addition of Gly-Pro-AMC, followed by incubation of assay plates for 30 min at 30° C. and the liberated AMC was measured as described above. A known inhibitor of DPP-IV (positive control) was always included in the assay. Test compounds at various concentrations were always evaluated in duplicate, along with substrate blanks, vehicle controls and positive controls.
The results are expressed as percent inhibition of the enzyme activity relative to vehicle controls. Dose-response studies were conducted for those compounds exerting ≧50% inhibition of activity at 10 nM in primary screening. IC50, defined as the inhibitor concentration which caused a 50% decrease of the activity under assay conditions, was computed using GraphPad Prism software, version 5.0.
The DPP-IV inhibition data (expressed either as IC50 in nanomolar or percent inhibition at a particular compound concentration) is presented in Table 1.

T1 sequence (P27487 whole entry): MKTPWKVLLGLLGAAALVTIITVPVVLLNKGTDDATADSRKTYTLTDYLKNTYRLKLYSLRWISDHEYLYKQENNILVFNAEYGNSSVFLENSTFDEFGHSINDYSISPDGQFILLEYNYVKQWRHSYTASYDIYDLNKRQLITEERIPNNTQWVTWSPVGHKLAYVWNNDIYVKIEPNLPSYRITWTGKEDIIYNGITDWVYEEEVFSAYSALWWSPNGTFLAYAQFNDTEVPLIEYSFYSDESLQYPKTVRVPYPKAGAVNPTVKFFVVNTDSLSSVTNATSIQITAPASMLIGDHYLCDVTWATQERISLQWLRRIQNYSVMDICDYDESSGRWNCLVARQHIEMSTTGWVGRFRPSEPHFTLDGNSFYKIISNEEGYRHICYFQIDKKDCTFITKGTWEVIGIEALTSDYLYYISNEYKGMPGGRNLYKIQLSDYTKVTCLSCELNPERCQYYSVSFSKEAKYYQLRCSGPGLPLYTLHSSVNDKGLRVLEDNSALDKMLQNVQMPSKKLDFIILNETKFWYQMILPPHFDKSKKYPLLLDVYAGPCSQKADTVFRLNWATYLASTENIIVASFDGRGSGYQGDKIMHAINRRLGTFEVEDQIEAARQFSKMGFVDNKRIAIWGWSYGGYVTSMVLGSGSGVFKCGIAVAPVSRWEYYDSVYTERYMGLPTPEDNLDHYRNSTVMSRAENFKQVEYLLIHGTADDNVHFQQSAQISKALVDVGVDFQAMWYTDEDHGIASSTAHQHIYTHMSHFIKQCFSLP

Compound | % inhibition at 10 nM [% inhibition at 10 nM]
N#C[C@H]1C[C@H]2C[C@H]2N1C(=O)[C@@H](N)C1CC2CCC(C1)N2C(=O)c1ccnc(F)c1.O=C(O)C(F)(F)F (stereo partly drawn) [Compound 29, (1R,3R,5R)-2-{(2S)-2-Amino-2-[8-(2-fluoropyridine-4-carbonyl)-8-aza-bicyclo[3.2.1]oct-3-yl]-exo-ethanoyl}-2-azabicyclo[3.1.0]hexane-3-carbonitrile trifluoroacetic acid salt] | 0
N#C[C@H]1C[C@H]2C[C@H]2N1C(=O)[C@H](N)C1CC2CCC(C1)N2C(=O)c1ccnc(F)c1.O=C(O)C(F)(F)F (stereo partly drawn) [Compound 30, (1R,3R,5R)-2-{(2R)-2-Amino-2-[8-(2-fluoropyridine-4-carbonyl)-8-aza-bicyclo[3.2.1]oct-3-yl]-exo-ethanoyl}-2-azabicyclo[3.1.0]hexane-3-carbonitrile trifluoroacetic acid salt] | 0
N#C[C@@H]1C[C@@H]2C[C@@H]2N1C(=O)[C@H](N)C1CC2CCC(C1)N2C(=O)c1cnccn1.O=C(O)C(F)(F)F (stereo partly drawn) [Compound 36, (1S,3S,5S)-2-{(2R)-2-Amino-2-[8-(pyrazine-2-carbonyl)-8-aza-bicyclo[3.2.1]oct-3-yl]-exo-ethanoyl}-2-azabicyclo[3.1.0]hexane-3-carbonitrile trifluoroacetic acid salt] | 17
N#C[C@@H]1C[C@@H]2C[C@@H]2N1C(=O)[C@@H](N)C1CC2CCC(C1)N2C(=O)c1ccco1.O=C(O)C(F)(F)F (stereo partly drawn) [Compound 40, (1S,3S,5S)-2-{(2S)-2-Amino-2-[8-(furan-2-carbonyl)-8-aza-bicyclo[3.2.1]oct-3-yl]-exo-ethanoyl}-2-azabicyclo[3.1.0]hexane-3-carbonitrile trifluoroacetic acid salt] | 44
N[C@H](C(=O)N1CCC[C@H]1CO)C1CC2CCC(C1)N2C(=O)c1ccc2c(c1)OCO2.O=C(O)C(F)(F)F (stereo partly drawn) [Compound 14, (2S)-{(2S)-1-[(2S)-2-Amino-2-(8-(benzo[1,3]dioxole-5-carbonyl)-8-aza-bicyclo[3.2.1]-oct-3-yl)-exo-acetyl]-pyrrolidin-2-yl}methanol trifluoroacetic acid salt] | 12
N#C[C@@H]1C[C@@H]2C[C@@H]2N1C(=O)[C@@H](N)C1CC2CCC(C1)N2Cc1ccncc1.O=C(O)C(F)(F)F (stereo partly drawn) [Compound 55, (1S,3S,5S)-2-{(2S)-2-Amino-2-[8-(pyridin-4-yl-methyl)-8-aza-bicyclo[3.2.1]oct-3-yl]-exo-ethanoyl}-2-azabicyclo[3.1.0]hexane-3-carbonitrile trifluoroacetic acid salt] | 45

Same assay, conditions: compound 1000 nM; relative to vehicle controls; read-out: % inhibition at 1000 nM

Compound | inhibition at 1 µM [%]
N[C@H](C(=O)N1[C@H](C(=O)O)C[C@@H]2C[C@@H]21)C1CC2CCC(C1)N2C(=O)c1ccc2c(c1)OCO2 (stereo partly drawn) [Compound 46, (1S,3S,5S)-2-{(2S)-2-Amino-2-[8-(benzo[1,3]-dioxole-5-carbonyl)-8-aza-bicyclo[3.2.1]-oct-3-yl]-exo-ethanoyl}-2-azabicyclo[3.1.0]hexane-3-carboxylic acid hydrochloride] | 13

Same assay, conditions: human recombinant DPP-IV, 50 μM Gly-Pro-AMC, 30 min at 30° C.

Compound | IC50 [nM]
N#C[C@@H]1C[C@@H]2C[C@@H]2N1C(=O)[C@@H](N)C1CC2CCC(C1)N2C(=O)c1cc(F)c(F)cc1F (stereo partly drawn) [Compound 23, (1S,3S,5S)-2-{(2S)-2-Amino-2-[8-(2,4,5-trifluorobenzoyl)-8-aza-bicyclo[3.2.1]oct-3-yl]-exo-ethanoyl}-2-azabicyclo[3.1.0]hexane-3-carbonitrile trifluoroacetic acid salt] | 9.75
N#C[C@@H]1C[C@@H]2C[C@@H]2N1C(=O)[C@@H](N)C1CC2CCC(C1)N2S(=O)(=O)c1cc(F)cc(F)c1 (stereo partly drawn) [Compound 42, (1S,3S,5S)-2-{(2S)-2-Amino-2-[8-(3,5-difluorobenzenesulfonyl)-8-aza-bicyclo[3.2.1]oct-3-yl]-exo-ethanoyl}-2-azabicyclo[3.1.0]hexane-3-carbonitrile trifluoroacetic acid salt] | 9
N#C[C@@H]1C[C@@H]2C[C@@H]2N1C(=O)[C@@H](N)C1CC2CCC(C1)N2C(=O)Cc1ccncc1 (stereo partly drawn) [Compound 54, (1S,3S,5S)-2-{(2S)-2-Amino-2-[8-(2-pyridin-4-yl-acetyl)-8-aza-bicyclo[3.2.1]oct-3-yl]-exo-ethanoyl}-2-azabicyclo[3.1.0]hexane-3-carbonitrile di trifluoroacetic acid salt] | 3.3
N#C[C@@H]1C[C@@H]2C[C@@H]2N1C(=O)[C@@H](N)C1CC2CCC(C1)N2C(=O)c1ccccn1 (stereo partly drawn) [Compound 39, (1S,3S,5S)-2-{(2S)-2-Amino-2-[8-(pyridine-2-carbonyl)-8-aza-bicyclo[3.2.1]oct-3-yl]-exo-ethanoyl}-2-azabicyclo[3.1.0]hexane-3-carbonitrile trifluoroacetic acid salt] | 11.7
N#C[C@@H]1C[C@H](F)CN1C(=O)[C@@H](N)C1CC2CCC(C1)N2C(=O)c1cc(F)ccc1F (stereo partly drawn) [Compound 17, (2S,4S)-1-{(2S)-2-Amino-2-[8-(2,5-difluorobenzoyl)-8-aza-bicyclo[3.2.1]oct-3-yl]-exo-ethanoyl}-4-fluoro-pyrrolidin-2-carbonitrile trifluoroacetic acid salt] | 2.4
CS(=O)(=O)c1ccc(N2C3CCC2CC([C@H](N)C(=O)N2[C@H](C#N)C[C@@H]4C[C@@H]42)C3)cc1 (stereo partly drawn) [Compound 53, (1S,3S,5S)-2-{(2S)-2-Amino-2-[8-(4-methanesulfonylphenyl)-8-aza-bicyclo[3.2.1]oct-3-yl]-exo-ethanoyl}-2-azabicyclo[3.1.0]hexane-3-carbonitrile trifluoroacetic acid salt] | 19.7
N#C[C@@H]1C[C@@H]2C[C@@H]2N1C(=O)[C@@H](N)C1CC2CCC(C1)N2C(=O)c1cccnc1F (stereo partly drawn) [Compound 32, (1S,3S,5S)-2-{(2S)-2-Amino-2-[8-(2-fluoropyridine-3-carbonyl)-8-aza-bicyclo[3.2.1]oct-3-yl]-exo-ethanoyl}-2-azabicyclo[3.1.0]hexane-3-carbonitrile trifluoroacetic acid salt] | 6.84
N#C[C@@H]1C[C@@H]2C[C@@H]2N1C(=O)[C@@H](N)C1CC2CCC(C1)N2C(=O)c1cccs1 (stereo partly drawn) [Compound 34, (1S,3S,5S)-2-{(2S)-2-Amino-2-[8-(thiophene-2-carbonyl)-8-aza-bicyclo[3.2.1]oct-3-yl]-exo-ethanoyl}-2-azabicyclo[3.1.0]hexane-3-carbonitrile trifluoroacetic acid salt] | 12.9
CC(=O)N1CCC(C(=O)N2C3CCC2CC([C@H](N)C(=O)N2[C@H](C#N)C[C@@H]4C[C@@H]42)C3)CC1 (stereo partly drawn) [Compound 69, (1S,3S,5S)-2-{(2S)-2-Amino-2-[8-(1-acetyl-piperidin-4-carbonyl)-8-aza-bicyclo[3.2.1]oct-3-yl]-exo-ethanoyl}-2-azabicyclo[3.1.0]hexane-3-carbonitrile trifluoroacetic acid salt] | 13
N#C[C@@H]1CCCN1C(=O)[C@@H](N)C1CC2CCC(C1)N2 (stereo partly drawn) [Compound 8, (2S)-1-{(2S)-2-Amino-2-[8-aza-bicyclo[3.2.1]oct-3-yl]-exo-ethanoyl}-pyrrolidin-2-carbonitrile trifluoro acetic acid salt] | 6.84
N#C[C@@H]1CCCN1C(=O)[C@@H](N)C1CC2CCC(C1)N2C(=O)c1ccnc(F)c1 (stereo partly drawn) [Compound 7, (2S)-1-{(2S)-2-Amino-2-[8-(2-fluoro-pyridine-4-carbonyl)-8-aza-bicyclo[3.2.1]oct-3-yl]-exo-ethanoyl}-pyrrolidin-2-carbonitrile trifluoroacetic acid salt] | 1.9
N#C[C@@H]1C[C@H](F)CN1C(=O)[C@@H](N)C1CC2CCC(C1)N2C(=O)c1cc(F)c(F)cc1F (stereo partly drawn) [Compound 16, (2S,4S)-1-{(2S)-2-Amino-2-[8-(2,4,5-trifluorobenzoyl)-8-aza-bicyclo[3.2.1]oct-3-yl]-exo-ethanoyl}-4-fluoro-pyrrolidin-2-carbonitrile trifluoroacetic acid salt] | 2.9
N#Cc1ccc(C(=O)N2C3CCC2CC([C@H](N)C(=O)N2[C@H](C#N)C[C@@H]4C[C@@H]42)C3)cc1 (stereo partly drawn) [Compound 24, (1S,3S,5S)-2-{(2S)-2-Amino-2-[8-(4-cyanobenzoyl)-8-aza-bicyclo[3.2.1]oct-3-yl]-exo-ethanoyl}-2-azabicyclo[3.1.0]hexane-3-carbonitrile trifluoroacetic acid salt] | 3.52

Same assay, conditions: read-out: % inhibition at 10 nM

Compound | inhibition at 0.01 µM [%]
N[C@H](C(=O)N1CC(F)C1)C1CC2CCC(C1)N2C(=O)c1ccncc1F (stereo partly drawn) [Compound 62, {(2S)-2-Amino-2-[8-(3-fluoropyridine-4-carbonyl)-8-aza-bicyclo[3.2.1]-oct-3-yl]-exo-ethanoyl}-3-fluoroazetidine trifluoroacetic acid salt] | 12

Reference: US8338450B2, “Compounds as dipeptidyl peptidase IV (DPP IV) inhibitors” (Lupin Limited, priority 2007, dated 2012)
